Data from PubChem BioAssay (NCI).
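Values below derive from 48-hour exposures of cells grown in 96-well plates, with endpoints linearly interpolated between the two concentrations bracketing the appropriate inhibition level. GI50 = concentration required for 50% inhibition of growth. TGI denotes the concentration required for complete inhibition of growth.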

How the values were obtained:
Assay in all cases: NCI anticancer screen, dose series, 48 h
OVCAR-8 ovarian = test system: OVCAR-8 ovarian
RPMI-8226 leukemia = test system: RPMI-8226 leukemia
T-47D breast = test system: T-47D breast
MOLT-4 leukemia = test system: MOLT-4 leukemia
UACC-257 melanoma = test system: UACC-257 melanoma
HOP-62 NSCLC = test system: HOP-62 NSCLC
SK-MEL-2 melanoma = test system: SK-MEL-2 melanoma
TK-10 renal = test system: TK-10 renal
A498 renal = test system: A498 renal
SK-OV-3 ovarian = test system: SK-OV-3 ovarian
SK-MEL-28 melanoma = test system: SK-MEL-28 melanoma
MDA-MB-231 breast = test system: MDA-MB-231 breast
OVCAR-4 ovarian = test system: OVCAR-4 ovarian
IGROV1 ovarian = test system: IGROV1 ovarian
SR leukemia = test system: SR leukemia
COLO 205 colon = test system: COLO 205 colon
HCT-116 colon = test system: HCT-116 colon
SF-268 CNS = test system: SF-268 CNS
UACC-62 melanoma = test system: UACC-62 melanoma
NCI-H23 lung = test system: NCI-H23 lung
SNB-75 CNS = test system: SNB-75 CNS
NCI-H460 lung = test system: NCI-H460 lung
SNB-19 CNS = test system: SNB-19 CNS
SW-620 colon = test system: SW-620 colon
SF-539 CNS = test system: SF-539 CNS
K-562 leukemia = test system: K-562 leukemia
U251 CNS = test system: U251 CNS
A549 NSCLC = test system: A549 NSCLC
LOX IMVI melanoma = test system: LOX IMVI melanoma
MCF7 breast = test system: MCF7 breast
MDA-MB-435 = test system: MDA-MB-435
786-0 renal = test system: 786-0 renal
NCI-H226 lung = test system: NCI-H226 lung
HL-60(TB) leukemia = test system: HL-60(TB) leukemia
HT29 colon = test system: HT29 colon
CAKI-1 renal = test system: CAKI-1 renal
NCI-H522 lung = test system: NCI-H522 lung
SF-295 CNS = test system: SF-295 CNS
SN12C renal = test system: SN12C renal
DU-145 prostate = test system: DU-145 prostate
HCC-2998 colon = test system: HCC-2998 colon
HS 578T breast = test system: HS 578T breast
ACHN renal = test system: ACHN renal
RXF 393 renal = test system: RXF 393 renal
PC-3 prostate = test system: PC-3 prostate
M14 melanoma = test system: M14 melanoma
NCI/ADR-RES ovarian = test system: NCI/ADR-RES ovarian
CCRF-CEM leukemia = test system: CCRF-CEM leukemia
OVCAR-5 ovarian = test system: OVCAR-5 ovarian
BT-549 breast = test system: BT-549 breast
HCT-15 colon = test system: HCT-15 colon
MALME-3M melanoma = test system: MALME-3M melanoma
HOP-92 NSCLC = test system: HOP-92 NSCLC
SK-MEL-5 melanoma = test system: SK-MEL-5 melanoma
KM12 colon = test system: KM12 colon
UO-31 renal = test system: UO-31 renal

Question: How did the GI50 (OVCAR-8 ovarian) turn out when Nc1ccc(-c2nnc(SCc3ccc(O)c4ncccc34)o2)cc1 was run?
Answer: 41.8 nM

Question: And the TGI (OVCAR-8 ovarian)?
Answer: > 100000 nM

Question: And the GI50 (RPMI-8226 leukemia)?
Answer: 46.1 nM

Question: And the TGI (RPMI-8226 leukemia)?
Answer: > 100000 nM

Question: What about the GI50 (T-47D breast) of the same compound?
Answer: 85 nM

Question: And the TGI (T-47D breast)?
Answer: > 100000 nM

Question: And the GI50 (MOLT-4 leukemia)?
Answer: 124 nM

Question: What about the TGI (MOLT-4 leukemia) of the same compound?
Answer: > 100000 nM

Question: What about the GI50 (UACC-257 melanoma) of the same compound?
Answer: 207 nM

Question: And the TGI (UACC-257 melanoma)?
Answer: 910 nM

Question: And the GI50 (HOP-62 NSCLC)?
Answer: 81.5 nM

Question: What about the TGI (HOP-62 NSCLC) of the same compound?
Answer: 7620 nM

Question: And the GI50 (SK-MEL-2 melanoma)?
Answer: 79.2 nM

Question: What about the TGI (SK-MEL-2 melanoma) of the same compound?
Answer: 2730 nM

Question: What about the GI50 (TK-10 renal) of the same compound?
Answer: 132 nM

Question: And the GI50 (A498 renal)?
Answer: 317 nM

Question: And the TGI (A498 renal)?
Answer: 3300 nM

Question: And the GI50 (SK-OV-3 ovarian)?
Answer: 80.7 nM

Question: And the TGI (SK-OV-3 ovarian)?
Answer: 577 nM

Question: And the GI50 (SK-MEL-28 melanoma)?
Answer: 139 nM

Question: What about the TGI (SK-MEL-28 melanoma) of the same compound?
Answer: > 100000 nM

Question: And the GI50 (MDA-MB-231 breast)?
Answer: 154 nM

Question: And the TGI (MDA-MB-231 breast)?
Answer: 22600 nM

Question: What about the GI50 (OVCAR-4 ovarian) of the same compound?
Answer: 259 nM

Question: And the TGI (OVCAR-4 ovarian)?
Answer: > 100000 nM

Question: What about the GI50 (IGROV1 ovarian) of the same compound?
Answer: 84.6 nM

Question: And the TGI (IGROV1 ovarian)?
Answer: > 41900 nM

Question: What about the GI50 (SR leukemia) of the same compound?
Answer: 89.1 nM

Question: And the TGI (SR leukemia)?
Answer: > 100000 nM

Question: And the GI50 (COLO 205 colon)?
Answer: 442 nM

Question: And the TGI (COLO 205 colon)?
Answer: 2450 nM

Question: What about the GI50 (HCT-116 colon) of the same compound?
Answer: 37.9 nM

Question: And the TGI (HCT-116 colon)?
Answer: 28800 nM

Question: And the GI50 (SF-268 CNS)?
Answer: 64.1 nM

Question: What about the TGI (SF-268 CNS) of the same compound?
Answer: > 75300 nM

Question: What about the GI50 (UACC-62 melanoma) of the same compound?
Answer: 249 nM

Question: And the TGI (UACC-62 melanoma)?
Answer: 2280 nM

Question: And the GI50 (NCI-H23 lung)?
Answer: 49.2 nM

Question: What about the TGI (NCI-H23 lung) of the same compound?
Answer: > 26900 nM

Question: And the GI50 (SNB-75 CNS)?
Answer: 112 nM

Question: And the TGI (SNB-75 CNS)?
Answer: 12900 nM

Question: What about the GI50 (NCI-H460 lung) of the same compound?
Answer: 36.7 nM

Question: And the GI50 (SNB-19 CNS)?
Answer: 43.8 nM

Question: What about the TGI (SNB-19 CNS) of the same compound?
Answer: > 51800 nM

Question: And the GI50 (SW-620 colon)?
Answer: 61.8 nM

Question: What about the TGI (SW-620 colon) of the same compound?
Answer: > 100000 nM

Question: And the GI50 (SF-539 CNS)?
Answer: 64.2 nM

Question: And the TGI (SF-539 CNS)?
Answer: 8750 nM

Question: What about the GI50 (K-562 leukemia) of the same compound?
Answer: 44.2 nM

Question: And the TGI (K-562 leukemia)?
Answer: > 100000 nM

Question: And the GI50 (U251 CNS)?
Answer: 35.4 nM

Question: And the TGI (U251 CNS)?
Answer: 11800 nM

Question: And the GI50 (A549 NSCLC)?
Answer: 41.7 nM

Question: What about the TGI (A549 NSCLC) of the same compound?
Answer: > 100000 nM

Question: And the GI50 (LOX IMVI melanoma)?
Answer: 30.5 nM

Question: And the TGI (LOX IMVI melanoma)?
Answer: > 33700 nM

Question: What about the GI50 (MCF7 breast) of the same compound?
Answer: 38.7 nM

Question: And the TGI (MCF7 breast)?
Answer: > 100000 nM

Question: And the GI50 (MDA-MB-435)?
Answer: 45.4 nM

Question: And the TGI (MDA-MB-435)?
Answer: > 100000 nM

Question: What about the GI50 (786-0 renal) of the same compound?
Answer: 224 nM

Question: And the TGI (786-0 renal)?
Answer: 16700 nM

Question: And the GI50 (NCI-H226 lung)?
Answer: 441 nM

Question: What about the TGI (NCI-H226 lung) of the same compound?
Answer: > 100000 nM

Question: What about the GI50 (HL-60(TB) leukemia) of the same compound?
Answer: 98.7 nM

Question: And the TGI (HL-60(TB) leukemia)?
Answer: 1220 nM

Question: What about the GI50 (HT29 colon) of the same compound?
Answer: 485 nM

Question: And the TGI (HT29 colon)?
Answer: > 100000 nM

Question: And the GI50 (CAKI-1 renal)?
Answer: 179 nM

Question: And the TGI (CAKI-1 renal)?
Answer: > 68100 nM

Question: What about the GI50 (NCI-H522 lung) of the same compound?
Answer: 44 nM

Question: What about the TGI (NCI-H522 lung) of the same compound?
Answer: > 50700 nM

Question: What about the GI50 (SF-295 CNS) of the same compound?
Answer: 41.2 nM

Question: What about the TGI (SF-295 CNS) of the same compound?
Answer: > 39000 nM

Question: What about the GI50 (SN12C renal) of the same compound?
Answer: 39.2 nM

Question: What about the TGI (SN12C renal) of the same compound?
Answer: > 100000 nM

Question: What about the GI50 (DU-145 prostate) of the same compound?
Answer: 55 nM

Question: And the TGI (DU-145 prostate)?
Answer: > 38500 nM

Question: And the GI50 (HCC-2998 colon)?
Answer: 177 nM

Question: What about the TGI (HCC-2998 colon) of the same compound?
Answer: > 100000 nM

Question: And the GI50 (HS 578T breast)?
Answer: 50.9 nM

Question: And the TGI (HS 578T breast)?
Answer: > 100000 nM

Question: What about the GI50 (ACHN renal) of the same compound?
Answer: 72.6 nM

Question: What about the TGI (ACHN renal) of the same compound?
Answer: > 31900 nM

Question: And the GI50 (RXF 393 renal)?
Answer: 90.6 nM

Question: What about the TGI (RXF 393 renal) of the same compound?
Answer: > 85900 nM

Question: And the GI50 (PC-3 prostate)?
Answer: 50.2 nM

Question: What about the TGI (PC-3 prostate) of the same compound?
Answer: > 100000 nM

Question: And the GI50 (M14 melanoma)?
Answer: 60.4 nM

Question: What about the TGI (M14 melanoma) of the same compound?
Answer: 2810 nM

Question: What about the GI50 (NCI/ADR-RES ovarian) of the same compound?
Answer: 43.9 nM

Question: What about the TGI (NCI/ADR-RES ovarian) of the same compound?
Answer: > 100000 nM

Question: What about the GI50 (CCRF-CEM leukemia) of the same compound?
Answer: 61.7 nM

Question: And the TGI (CCRF-CEM leukemia)?
Answer: > 100000 nM

Question: And the GI50 (OVCAR-5 ovarian)?
Answer: 498 nM

Question: And the TGI (OVCAR-5 ovarian)?
Answer: > 100000 nM

Question: And the GI50 (BT-549 breast)?
Answer: 55.8 nM

Question: And the TGI (BT-549 breast)?
Answer: > 100000 nM

Question: And the GI50 (HCT-15 colon)?
Answer: 38.2 nM

Question: And the TGI (HCT-15 colon)?
Answer: > 100000 nM

Question: What about the GI50 (MALME-3M melanoma) of the same compound?
Answer: 92.7 nM

Question: And the TGI (MALME-3M melanoma)?
Answer: 31900 nM

Question: What about the GI50 (HOP-92 NSCLC) of the same compound?
Answer: 23.8 nM

Question: What about the TGI (HOP-92 NSCLC) of the same compound?
Answer: 72.4 nM

Question: What about the GI50 (SK-MEL-5 melanoma) of the same compound?
Answer: 49.1 nM

Question: And the GI50 (KM12 colon)?
Answer: 128 nM

Question: And the TGI (KM12 colon)?
Answer: > 100000 nM

Question: What about the GI50 (UO-31 renal) of the same compound?
Answer: 61.9 nM

Question: And the TGI (UO-31 renal)?
Answer: 1910 nM
